Reference: the NIST ThermoML archive (doi:10.1016/j.jct.2005.04.018)

Conditions: Liquid, Vibrating tube method

CCCCCC[n+]1ccn(C)c1.O=S(=O)([N-]S(=O)(=O)C(F)(F)F)C(F)(F)F
mass density [kg/m3]
Conditions	313.15 K	318.15 K	323.15 K	325.15 K	327.15 K	329.15 K	331.15 K	333.15 K
100 kPa	–	1352.32	1348.05	1346.34	1344.39	1342.33	1340.37	1338.24
1830 kPa	–	1353.62	1349.36	1347.7	1345.74	1343.71	1341.75	1339.65
10020 kPa	1364.45	1359.84	1355.55	1354.03	1352.05	1350.14	1348.2	1346.2
14980 kPa	1368.01	1363.45	1359.13	1357.71	1355.75	1353.87	1351.91	1349.99
19750 kPa	1371.36	–	1362.5	1361.18	1359.21	1357.38	1355.44	1353.57
25860 kPa	1375.57	1371.1	1366.73	1365.48	1363.58	1361.77	1359.84	1358.01
31480 kPa	1379.34	1374.91	1370.56	1369.35	1367.53	1365.68	1363.79	1361.98
37770 kPa	1383.47	1379.09	1374.72	1373.57	1371.82	1369.99	1368.1	1366.34
44170 kPa	1387.6	1383.28	1378.88	1377.76	1376.09	1374.26	1372.39	1370.63
50750 kPa	1391.76	1387.51	1383.17	1382.02	1380.39	1378.59	1376.72	1374.95
59590 kPa	1397.25	–	–	–	–	–	–	–
